In BindingDB's records for doi:10.1021/jm9800595 (Purdue University, 1998):

Target: T1, Gag-Pol polyprotein [588-1027]/[588-1147] (Human immunodeficiency virus 1, UniProt P04585)
T1 construct: 588-1027; 588-1147
Assay: HIV-1 RT Assay
Settings: pH 7.9

## COC(=O)c1cc(C(=CC(=O)O)c2cc(Cl)c(OC)c(C(=O)OC)c2)cc(Cl)c1OC [3,3-Dichloro-4,4-dimethoxy-5,5-bis(methoxycarbonyl)-3,3-diphenylpropenoic Acid]
  IC50: > 100 µM

## CC1(C)OC(=O)c2cc(C(=CCCBr)c3cc(Cl)c4c(c3)C(=O)OC(C)(C)O4)cc(Cl)c2O1 [6-[4-bromo-1-(8-chloro-2,2-dimethyl-4-oxo-2,4-dihydro-1,3-benzodioxin-6-yl)but-1-en-1-yl]-8-chloro-2,2-dimethyl-2,4-dihydro-1,3-benzodioxin-4-one]
  IC50: > 100 µM

## CC1(C)OC(=O)c2cc(C(=CCCO)c3cc(Cl)c4c(c3)C(=O)OC(C)(C)O4)cc(Cl)c2O1 [8-chloro-6-[1-(8-chloro-2,2-dimethyl-4-oxo-2,4-dihydro-1,3-benzodioxin-6-yl)-4-hydroxybut-1-en-1-yl]-2,2-dimethyl-2,4-dihydro-1,3-benzodioxin-4-one]
  IC50: > 100 µM

## COC=C(c1cc(Br)c(OC)c(C(=O)OC)c1)c1cc(Br)c(OC)c(C(=O)OC)c1 [Alkenyldiarylmethane (ADAM) 5]
  IC50: > 100 µM

## COC(=O)c1cc(C(=CCCCC(=O)O)c2cc(Cl)c(OC)c(C(=O)OC)c2)cc(Cl)c1OC [Alkenyldiarylmethane (ADAM) 25]
  IC50: > 100 µM

## COc1c(Cl)cc(C(=CCCCC(=O)O)c2cc(Cl)c(OC)c(C(=O)O)c2)cc1C(=O)O [Alkenyldiarylmethane (ADAM) 26]
  IC50: > 100 µM

## COc1c(Cl)cc(C(=CCC(=O)O)c2cc(Cl)c(OC)c(C(=O)O)c2)cc1C(=O)O [Alkenyldiarylmethane (ADAM) 27]
  IC50: > 100 µM

## C=C(c1cc(Br)c(OC)c(C(=O)OC)c1)c1cc(Br)c(OC)c(C(=O)OC)c1 [methyl 3-bromo-5-{1-[3-bromo-4-methoxy-5-(methoxycarbonyl)phenyl]ethenyl}-2-methoxybenzoate]
  IC50: > 100 µM

## COC(=O)c1cc(C(=CCCO)c2cc(Cl)c(OC)c(C(=O)OC)c2)cc(Cl)c1OC [methyl 3-chloro-5-{1-[3-chloro-4-methoxy-5-(methoxycarbonyl)phenyl]-4-hydroxybut-1-en-1-yl}-2-methoxybenzoate]
  IC50: > 100 µM

## COC(=O)c1cc(C(=CC(=O)OC(C)(C)C)c2cc(Cl)c(OC)c(C(=O)OC)c2)cc(Cl)c1OC [methyl 5-[3-(tert-butoxy)-1-[3-chloro-4-methoxy-5-(methoxycarbonyl)phenyl]-3-oxoprop-1-en-1-yl]-3-chloro-2-methoxybenzoate]
  IC50: > 100 µM
